Entries after “also recorded” stand apart in the source; their conditions may differ.
Experiments:
Format in all cases: cell-based
Human iPS cells = assay: Undifferentiation-specific gene expression analysis (Nanog, Oct3/4 quantitative PCR); details: no addition defined as 1
Description: Human iPS cells (RIKEN BRC) were reconstituted on SNL feeder cells (manufactured by Cell Biolabs, Inc.) and cultured in a CO2 incubator (5% CO2, 37° C., wet). On the next day, medium replacement was performed. The medium was replaced with a fresh one every day until 80% confluency. The cells that reached 80% confluency were recovered and subcultured. The subculture method for the cells is as follows: the cells were washed with DPBS(−) (no calcium, no magnesium, Thermo Fisher Scientific Inc.) and then treated with a CTK solution ((0.25% trypsin+1 mg/ml collagenase IV+1 mM CaCl2+20% KSR in DPBS (−))). The CTK solution was removed, and the cells were washed with DPBS(−) twice. […]
Subsequently, the expression levels of undifferentiation-specific genes Nanog and Oct3/4 were measured. […] The expression levels of the undifferentiation markers were quantified by the following method. […]
cDNA was synthesized from the FastLane lysate (RNA) through RT-PCR reaction using QuantiTect Reverse Transcription Kit (manufactured by Qiagen N.V.).
The quantitative PCR of OCT3/4 and NANOG was carried out under conditions of 95° C. for 30 seconds; (95° C. for 5 seconds; 60° C. for 30 seconds)×40; dissociation using SYBR Premix Ex Taq II (Tli RNaseH Plus) (manufactured by Takara Bio Inc.). […]

[1] = system: Mouse fibroblasts C57BL/6-GFP; assay: Cell freezing, slow freezing method, viable cell count after thawing (Example 2); details: 5% by weight in H2O; frozen to −80° C. at −1° C./min; FIG. 4
Description: CultureSure® cryopreservation solution (manufactured by FUJIFILM Wako Pure Chemical Corp.) (hereinafter, referred to as “FM”) • H2O • 5% by weight of DMSO/H2O • 5% by weight of OE2imC3C/H2O
The cells to be frozen (two types) were centrifugally recovered by trypsin treatment and diluted with Dulbecco's modified Eagle medium (DMEM), and each cell concentration was measured. The types and cell concentrations of the cells are as follows. • Human skin fibroblasts 5.0×10^5 cells/100 μl • Mouse fibroblasts C57BL/6-GFP 5.0×10^5 cells/100 μl
Subsequently, the cells of each type were dispensed at 1 ml/tube to 1.5 ml tubes, centrifuged, suspended in 100 μl each of the cryopreservation solutions described above, and frozen at a cooling temperature of −80° C. at a cooling rate of −1° C./min using a cell freezing container Mr. Frosty®.
1 ml of a medium was added to the cryopreservation vial for thawing, and a supernatant was removed by centrifugation. Subsequently, the cells obtained by centrifugation were resuspended in a medium, followed by the measurement of a viable cell count. Then, culture was started in a 6-well plate.

Human skin fibroblasts = assay: Cell freezing, rapid freezing method, viable cell count (Example 4)
Description: (§1) Human ES cell and human iPS cell cryopreservation solution DAP213 (manufactured by ReproCELL Inc.) • 75% by weight of OE2imC3C/H2O • 50% by weight of OE2imC3C/H2O • 25% by weight of OE2imC3C/H2O
(§2) The cells to be frozen (two types) were centrifugally recovered by trypsin treatment and diluted with Dulbecco's modified Eagle medium (DMEM), and each cell concentration was measured. The types and cell concentrations of the cells are as follows. • Human skin fibroblasts 8.2×10^5 cells/100 μl (N=3) • Mouse fibroblasts C57BL/6-GFP 1.2×10^6 cells/100 μl (N=3)
(§3) Subsequently, the cells of each type were dispensed at 1 ml/tube to 1.5 ml tubes, centrifuged, suspended in 100 μl each of the cryopreservation solutions described above, and immediately thereafter rapidly frozen in liquid nitrogen within 10 to 15 seconds. Then, the cells were preserved for 3 days in a liquid nitrogen tank.
(§4) The cryopreservation vial was rapidly thawed with 1 ml of a medium, and a supernatant was removed by centrifugation. Subsequently, the cells obtained by centrifugation were resuspended in a medium, followed by the measurement of a viable cell count. Then, culture was started in a 6-well plate.
(§5) 24 hours after the start of culture, the viable cell count was measured.

[2] = system: Mouse fibroblasts C57BL/6-GFP; assay: as above
Description: as §1, §2, §3, §4, §5

Compound: COCCOCCn1cc[n+](CCCC(=O)[O-])c1 [OE2imC3C]
- relative expression levels of Nanog and Oct3/4 (Human iPS cells; with SNL feeder cells, 0.4, 1.0 and 2.0% (w/v) in human iPS cell medium, FIG. 1): amplify the undifferentiation markers
- relative expression levels of Nanog and Oct3/4 (Human iPS cells; without feeder cells, 1.0 and 2.0% (w/v) in SNL-conditioned medium, FIG. 2): amplify the undifferentiation markers
- viable cell count after thawing [1]: larger viable cell count than that in the case of using conventional DMSO
- viable cell count after thawing (Human skin fibroblasts; 75, 50, 25% by weight in H2O, rapidly frozen in liquid nitrogen, preserved 3 days, FIG. 7): comparable to that of the commercially available cryopreservation solution DAP213; also recorded: a lower concentration (25% by weight) offered a higher survival rate of the cells
- viable cell count 24 hours after the start of culture (Human skin fibroblasts; rapid freezing method, FIG. 9): reached a high value, albeit being inferior to the commercially available cryopreservation solution DAP213
- viable cell count after thawing ([2]; 75, 50, 25% by weight in H2O, rapidly frozen in liquid nitrogen, preserved 3 days, FIG. 8): comparable to that of the commercially available cryopreservation solution DAP213; also recorded: a lower concentration (25% by weight) offered a higher survival rate of the cells
- viable cell count 24 hours after the start of culture ([2]; rapid freezing method, FIG. 10): reached a high value, albeit being inferior to the commercially available cryopreservation solution DAP213
